Experimental data taken from patent US7799824B2, “Quaternary salt CCR2 antagonists” (OraPharma, Inc., priority 2004, dated 2010).

These compounds were tested against T1, CCR2 (Homo sapiens, UniProt P41597) (assay: MCP-1 Receptor Binding Assay in THP-1 Cells). Details: MCP-1 binding to CCR2; test concentration of 25 μM, unless indicated otherwise; read-out: % Inhibition Ligand Binding.
T1 sequence (P41597 1-360 isoform P41597-2): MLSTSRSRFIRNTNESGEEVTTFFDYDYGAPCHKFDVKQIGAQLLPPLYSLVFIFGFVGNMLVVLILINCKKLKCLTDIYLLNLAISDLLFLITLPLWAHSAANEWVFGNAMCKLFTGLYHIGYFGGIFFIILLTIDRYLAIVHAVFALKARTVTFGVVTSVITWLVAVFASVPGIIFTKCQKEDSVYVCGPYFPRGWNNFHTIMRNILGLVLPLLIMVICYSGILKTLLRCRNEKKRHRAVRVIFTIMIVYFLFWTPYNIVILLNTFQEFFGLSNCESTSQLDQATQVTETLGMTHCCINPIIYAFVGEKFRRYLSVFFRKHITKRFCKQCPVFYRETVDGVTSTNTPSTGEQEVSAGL
Experimental: THP-1 cells were obtained from American Type Culture Collection (Manassas, Va., USA). […] The cell density was maintained between 0.5×10^6 cells/mL.
Cells were then harvested onto a filter plate, dried, and 20 μL of Microscint 20 was added to each well. Plates were counted in a TopCount NXT, Microplate Scintillation & Luminescence Counter (Perkin-Elmer Life Sciences, Inc. Boston, Mass.). Blank values (buffer only) were subtracted from all values and drug treated values were compared to vehicle treated values. 1 μM cold MCP-1 was used for nonspecific binding.

SMILES | inhibition at 25 µM [%]
C[N+](C)(Cc1ccc(NC(=O)c2cccc3ccccc23)cc1)C1CCOCC1 [Cpd 89, dimethyl-{4-[(naphthalene-1-carbonyl)-amino]-benzyl}-(tetrahydro-pyran-4-yl)-ammonium iodide] | 29
C[N+](C)(Cc1ccc(NC(=O)c2cncc(Br)c2)cc1)C1CCOCC1 [Cpd 172, {4-[(5-bromo-pyridine-3-carbonyl)-amino]-benzyl}-dimethyl-(tetrahydro-pyran-4-yl)-ammonium iodide] | 17
C[N+](C)(Cc1cccc(NC(=O)c2cccc(C(F)(F)F)c2)c1)C1CCOCC1 [Cpd 65, dimethyl-(tetrahydro-pyran-4-yl)-[3-(3-trifluoromethyl-benzoylamino)-benzyl]-ammonium iodide] | 61
C[N+]1(Cc2ccc(NC(=O)C=Cc3ccc(Cl)c(Cl)c3)cc2)CCOCC1 [Cpd 60, 4-{4-[3-(3,4-dichloro-phenyl)-acryloylamino]-benzyl}-4-methyl-morpholin-4-ium iodide] | 20
C[N+](C)(Cc1ccc(CNC(=O)C2=Cc3cc(Cl)c(Cl)cc3OCC2)cc1)C1CCOCC1 [Cpd 170, (4-{[(7,8-dichloro-2,3-dihydro-benzo[b]oxepine-4-carbonyl)-amino]-methyl}-benzyl)-dimethyl-(tetrahydro-pyran-4-yl)-ammonium iodide] | 36
Cc1oc(-c2ccccc2)cc1C(=O)NCc1ccc(C[N+](C)(C)C2CCOCC2)cc1 [Cpd 149, dimethyl-(4-{[(2-methyl-5-phenyl-furan-3-carbonyl)-amino]-methyl}-benzyl)-(tetrahydro-pyran-4-yl)-ammonium iodide] | 58

Same assay, conditions: THP-1 cells, 0.5 nM 125I labeled MCP-1, 2 hours at 30° C.; read-out: Mean Ligand Binding IC50 (inhibition of MCP-1 binding to CCR2)

SMILES | IC50 [µM]
C[N+]1(Cc2ccc(NC(=O)C=Cc3cccc(Br)c3)cc2)CCOCC1 [Cpd 61, 4-{4-[3-(3-bromo-phenyl)-acryloylamino]-benzyl}-4-methyl-morpholin-4-ium iodide] | 2.7
Cc1cc(Cl)cc2c1OCC(C(=O)Nc1ccc(C[N+](C)(C)C3CCOCC3)cc1)=C2 [Cpd 115, {4-[(6-chloro-8-methyl-2H-chromene-3-carbonyl)-amino]-benzyl}-dimethyl-(tetrahydro-pyran-4-yl)-ammonium iodide] | 0.05
C[N+](C)(Cc1ccc(NC(=O)C2=Cc3c(ccc4ccccc34)OC2)cc1)C1CCOCC1 [Cpd 135, {4-[(3H-benzo[f]chromene-2-carbonyl)-amino]-benzyl}-dimethyl-(tetrahydro-pyran-4-yl)-ammonium iodide] | 0.91
C[N+]1(Cc2ccc(NC(=O)c3ccc(Cl)c(Cl)c3)cc2)CCCCC1 [Cpd 50, 1-[4-(3,4-dichloro-benzoylamino)-benzyl]-1-methyl-piperidinium iodide] | 2.6
C[N+](C)(Cc1ccc(NC(=O)C2=Cc3cc(Cl)c(Cl)cc3OCC2)cc1)C1CCSC1 (stereo not drawn) [Cpd 171, {4-[(7,8-dichloro-2,3-dihydro-benzo[b]oxepine-4-carbonyl)-amino]-benzyl}-dimethyl-(tetrahydro-thiophen-3-yl)-ammonium iodide] | 0.56
C[N+](C)(Cc1ccc(NC(=O)C2=Cc3ccc(Cl)c(Cl)c3OC2)cc1)C1CCCCC1 [Cpd 116, cyclohexyl-{4-[(7,8-dichloro-2H-chromene-3-carbonyl)-amino]-benzyl}-dimethyl-ammonium iodide] | 0.6
C[N+](C)(Cc1ccc(NC(=O)c2ccc3ccc(Br)cc3c2)cc1)C1CCOCC1 [Cpd 93, {4-[(7-bromo-naphthalene-2-carbonyl)-amino]-benzyl}-dimethyl-(tetrahydro-pyran-4-yl)-ammonium iodide] | 0.9
C[N+](C)(Cc1ccc(NC(=O)C=Cc2cccc(C(F)(F)F)c2)cc1)C1CCOCC1 [Cpd 68, dimethyl-(tetrahydro-pyran-4-yl)-{4-[3-(3-trifluoromethyl-phenyl)-acryloylamino]-benzyl}-ammonium iodide] | 1.5
CC[N+](C)(Cc1ccc(NC(=O)c2ccc(Cl)c(Cl)c2)cc1)C1CCOCC1 (stereo not drawn) [Cpd 21, [4-(3,4-dichloro-benzoylamino)-benzyl]-ethyl-methyl-(tetrahydro-pyran-4-yl)-ammonium iodide] | 0.15
C[N+](C)(Cc1ccc(NC(=O)C2=Cc3cc(Cl)c(Cl)cc3OCC2)cc1)C1CCCCC1 [Cpd 168, cyclohexyl-{4-[(7,8-dichloro-2,3-dihydro-benzo[b]oxepine-4-carbonyl)-amino]-benzyl}-dimethyl-ammonium iodide] | 1
Cc1ccc(Cl)cc1C(=O)Nc1ccc(C[N+](C)(C)C2CCOCC2)cc1 [Cpd 35, [4-(5-chloro-2-methyl-benzoylamino)-benzyl]-dimethyl-(tetrahydro-pyran-4-yl)-ammonium iodide] | 0.4
C[N+](C)(Cc1cccc(NC(=O)C=Cc2ccc(Cl)c(Cl)c2)c1)C1CCCCC1 [Cpd 83, cyclohexyl-{3-[3-(3,4-dichloro-phenyl)-acryloylamino]-benzyl}-dimethyl-ammonium iodide] | 1.2
C[N+](C)(Cc1ccc(NC(=O)C2=Cc3c(Cl)cc(Cl)cc3OC2)cc1)C1CCCCC1 [Cpd 101, cyclohexyl-{4-[(5,7-dichloro-2H-chromene-3-carbonyl)-amino]-benzyl}-dimethyl-ammonium iodide] | 1.1
C[N+](C)(Cc1ccc(NC(=O)C=Cc2cc(F)cc(F)c2)cc1)C1CCOCC1 [Cpd 42, {4-[3-(3,5-difluoro-phenyl)-acryloylamino]-benzyl}-dimethyl-(tetrahydro-pyran-4-yl)-ammonium iodide] | 5.7
C[N+](C)(Cc1ccc(NC(=O)c2cc(-c3ccc(Cl)cc3)oc2C(F)(F)F)cc1)C1CCCCC1 [Cpd 154, (4-{[5-(4-chloro-phenyl)-2-trifluoromethyl-furan-3-carbonyl]-amino}-benzyl)-cyclohexyl-dimethyl-ammonium iodide] | 4.6
Cc1cccc(C=CC(=O)Nc2ccc(C[N+](C)(C)C3CCOCC3)cc2)c1 [Cpd 66, dimethyl-(tetrahydro-pyran-4-yl)-[4-(3-m-tolyl-acryloylamino)-benzyl]-ammonium iodide] | 1.7
C[N+](C)(Cc1ccc(NC(=O)C2=Cc3cc(Cl)ccc3OC2)cc1)C1CCOCC1 [Cpd 96, {4-[(6-chloro-2H-chromene-3-carbonyl)-amino]-benzyl}-dimethyl-(tetrahydro-pyran-4-yl)-ammonium iodide] | 0.11
CCC[N+](C)(Cc1ccc(NC(=O)c2ccc(Cl)c(Cl)c2)cc1)C1CCOCC1 (stereo not drawn) [Cpd 22, [4-(3,4-dichloro-benzoylamino)-benzyl]-methyl-propyl-(tetrahydro-pyran-4-yl)-ammonium iodide] | 1.6
C[N+](C)(Cc1ccc(NC(=O)c2cc(Cl)ccc2Cl)cc1)C1CCOCC1 [Cpd 11, [4-(2,5-dichloro-benzoylamino)-benzyl]-dimethyl-(tetrahydro-pyran-4-yl)-ammonium iodide] | 3.1
C[N+]1(Cc2ccc(NC(=O)C3=Cc4c(ccc5ccccc45)OC3)cc2)CCOCC1 [Cpd 139, 4-{4-[(3H-benzo[f]chromene-2-carbonyl)-amino]-benzyl}-4-methyl-morpholin-4-ium iodide] | 9.8
COc1ccc(C(=O)Nc2ccc(C[N+](C)(C)C3CCOCC3)cc2)cc1Cl [Cpd 27, [4-(3-chloro-4-methoxy-benzoylamino)-benzyl]-dimethyl-(tetrahydro-pyran-4-yl)-ammonium iodide] | 0.75
